Reference: ChEMBL document CHEMBL3045080, “Baseline susceptibility to chlorantraniliprole of Brazilian populations of Plutella xylostella” (2012)

Tests used:
Format in all cases: functional
Plutella xylostella [1] = assay: Insecticidal activity against Plutella xylostella (diamondback moth) CG1 using topical method of compound application
Plutella xylostella [2] = assay: Insecticidal activity against Plutella xylostella (diamondback moth) CG1 using leaf dip immersion method of compound application
Plutella xylostella [3] = assay: Insecticidal activity against Plutella xylostella (diamondback moth) Brazilian field isolates
Plutella xylostella [4] = assay: Insecticidal activity against Plutella xylostella (diamondback moth) CG1 using potter tower method of compound application

Structure (SMILES): CNC(=O)c1cc(Cl)cc(C)c1NC(=O)c1cc(Br)nn1-c1ncccc1Cl [CHLORANTRANILIPROLE]
- LC50 (Plutella xylostella [1]): 1.422 mgAi/L
- LC95 (Plutella xylostella [1]): 35.13 mgAi/L
- LC99 (Plutella xylostella [1]): 132.65 mgAi/L
- LC50 (Plutella xylostella [2]): 0.02 mgAi/L
- LC95 (Plutella xylostella [2]): 0.046 mgAi/L
- LC99 (Plutella xylostella [2]): 0.066 mgAi/L
- LC50 (Plutella xylostella [3]): 0.025 mgAi/L
- LC99 (Plutella xylostella [3]): 0.212 mgAi/L
- LC50 (Plutella xylostella [4]): 0.018 mgAi/L
- LC95 (Plutella xylostella [4]): 0.073 mgAi/L
- LC99 (Plutella xylostella [4]): 0.13 mgAi/L
